The source of these data is patent publication US20050197350A1, “Novel quinoline, tetrahydroquinazoline, and pyrimidine derivatives and methods of treatment related to the use thereof” (TAISHO PHARMACEUTICAL CO., LTD., priority 2003, published 2005).

In one assay the test system is MCH receptors. Put plainly: MCH receptor activity class (method not given). To be noted: MCH receptor; class by percent of control at 10^-7 M or IC50.
On to `CN(C)c1nc(N[C@H]2CC[C@@H](NC(=S)Nc3cc(F)cc(F)c3)CC2)nc2c1CCCC2` [compound 1982], for which the class is listed as 3 (Class 3 The value of percent of control at 10^−7 M was more than 60% or the value of IC50 was more than 200 nM.).

Staying with this assay, now noted: activity class per percent of control at 10^-7 M or IC50.
With `CN(C)c1nc(N[C@H]2CC[C@@H](CNC(=O)Cc3csc4ccccc34)CC2)nc2c1CCCC2` [compound 1084], the class is reported as 3 (Class 3 The value of percent of control at 10^−7 M was more than 60% or the value of IC50 was more than 200 nM.).
The same measure, in the same setting: the figure for `Cc1c(C(=O)N[C@H]2CC[C@@H](Nc3nc4c(c(N(C)C)n3)CCCC4)CC2)cc(-c2ccccc2)n1CCSCc1c(F)cccc1Cl` [compound 1028, 1-{2-[(2-chloro-6-fluorobenzyl)thio]ethyl}-N-(cis-4-{[4-(dimethy-lamino)-5,6,7,8-tetrahydroquinazolin-2-yl]amino}-cyclohexyl)-2-methyl-5-phenyl-1H-pyrrole-3-carboxamide] is 2 (Class 2: The value of percent of control at 10^−7 M was from 40% to 60% or the value of IC′50 was from 50 nM to 200 nM.).

Still in this assay, the particulars now being: class by percent of control at 10^-7 M or IC50.
Take `COc1ccc(CSC2(CC(=O)N[C@H]3CC[C@@H](Nc4nccc(N(C)C)n4)CC3)CCCCC2)cc1` [compound 853]: the class is given as 3 (Class 3 The value of percent of control at 10^−7 M was more than 60% or the value of IC50 was more than 200 nM.).
On the same count and under the same terms, the figure for `Cc1nn(-c2ccccc2)nc1C(=O)N[C@H]1CC[C@@H](Nc2nccc(N(C)C)n2)CC1` [compound 325, N-(cis-4-{[4-(dimethylamino)pyrimidin-2-yl]amino}cyclohexyl)-5-methyl-2-phenyl-2H-1,2,3-triazole-4-carboxamide] is 1 (Class 1: The value of percent of control at 10^−7 M was less than 40% or the value of IC50 was less than 50 nM.); for `COc1cc(Cl)ccc1CNC[C@H]1CC[C@@H](Nc2nc3c(c(N(C)C)n2)CCCC3)CC1` [compound 1507] it is 3 (Class 3 The value of percent of control at 10^−7 M was more than 60% or the value of IC50 was more than 200 nM.).
On the same count and under the same terms, the figure for `CN(C)c1nc(N[C@H]2CC[C@@H](NC(=S)Nc3ccc(Cl)cc3Cl)CC2)nc2c1CCCC2` [compound 1739] is 3 (Class 3 The value of percent of control at 10^−7 M was more than 60% or the value of IC50 was more than 200 nM.); for `CN(C)c1cc(N[C@H]2CC[C@@H](NC(=O)c3ccccc3C(=O)c3cccc4ccccc34)CC2)nc2ccccc12` [compound 749] it is 3 (Class 3 The value of percent of control at 10^−7 M was more than 60% or the value of IC50 was more than 200 nM.); for `CN(C)c1ccnc(N[C@H]2CC[C@@H](NC(=O)Nc3c(Cl)cccc3C(F)(F)F)CC2)n1` [compound 2193] it is 3 (Class 3 The value of percent of control at 10^−7 M was more than 60% or the value of IC50 was more than 200 nM.).
As for `CN(C)c1cc(N[C@H]2CC[C@@H](NC(=S)Nc3ccc(Br)cc3C(F)(F)F)CC2)nc2ccccc12` [compound 2285], the class is 2 (Class 2: The value of percent of control at 10^−7 M was from 40% to 60% or the value of IC′50 was from 50 nM to 200 nM.).
Same read-out and setting: the figure for `CN(C)c1ccnc(N[C@H]2CC[C@@H](NC(=O)C3CCc4ccccc4C3)CC2)n1` (relative stereo) [compound 917] is 3 (Class 3 The value of percent of control at 10^−7 M was more than 60% or the value of IC50 was more than 200 nM.).

Staying with this assay, now noted: class by percent of control at 10^−7 M or IC50.
As to `Cc1ccc(C(=O)N[C@H]2CC[C@@H](CNc3nc(C)cc(N(C)C)n3)CC2)cc1` [compound 2733], the class is recorded as 3 (Class 3 The value of percent of control at 10^−7 M was more than 60% or the value of IC50 was more than 200 nM.).
The same measure, in the same setting: the figure for `Cc1cc(C(=O)N[C@H]2CC[C@@H](Nc3nc(C)c(C)c(N(C)C)n3)CC2)no1` [compound 2828, N-(cis-4-{[4-(dimethylamino)-5,6-dimethylpyrimidin-2-yl]amino}cyclohexyl)-5-methylisoxazole-3-carboxamide] is 2 (Class 2: The value of percent of control at 10^−7 M was from 40% to 60% or the value of IC′50 was from 50 nM to 200 nM.).
